Measured values from ChEMBL document CHEMBL2401710, “Design, synthesis and structure-activity relationships of zwitterionic spirocyclic compounds as potent CCR1 antagonists” (Bioorg Med Chem Lett, 2013).

What was measured:
[1] = Antiplatelet activity in human platelet-rich plasma assessed as ADP-induced platelet aggregation at 10 uM relative to control; type: functional
[2] = Antiplatelet activity in human platelet-rich plasma assessed as inhibition of ADP-induced platelet aggregation; type: functional, cell-free
[3] = Half life in rat at 5 mg/kg, iv; type: ADME, organism-based; set-up: dose 5 mg/kg, route intravenous; settings: in vivo

IC50 [2] | half-life [3] | Compound | Activity [1]
 |  | CC(C)(C)c1ccccc1Oc1ncccc1Nc1ncc(-c2ccccc2)s1 | 87%
 |  | CCOC(=O)c1sc(Nc2cccnc2Oc2ccccc2C(C)(C)C)nc1C(F)(F)F | 50%
 |  | Cc1ccc(-c2sc(Nc3cccnc3Oc3ccccc3C(C)(C)C)nc2C(F)(F)F)cc1 | 32%
 |  | CC(C)(C)c1ccccc1Oc1ncccc1Nc1nc(C(F)(F)F)c(-c2ccccc2O)s1 | 99%
5.2 µM |  | CC(C)(C)c1ccccc1Oc1ncccc1Nc1nc(C(F)(F)F)c(-c2ccccc2)s1 | 61%
 |  | CC(C)(C)c1ccccc1Oc1ncccc1Nc1nc(C(F)(F)F)c(-c2ccc(C#N)cc2)s1 | 79%
 |  | CC(C)(C)c1ccccc1Oc1ncccc1Nc1nc(C(C)(C)C)c(-c2ccccc2)s1 | 86%
 |  | COc1cccc(-c2sc(Nc3cccnc3Oc3ccccc3C(C)(C)C)nc2C(F)(F)F)c1 | 41%
 |  | CC(C)(C)c1ccccc1Oc1ncccc1Nc1nc(C(F)(F)F)c(-c2ccccc2F)s1 | 41%
 |  | CC(C)(C)c1ccccc1Oc1ncccc1Nc1nc(C(F)(F)F)c(-c2cccc(O)c2)s1 | 98%
 |  | CCc1nc(Nc2cccnc2Oc2ccccc2C(C)(C)C)sc1-c1ccccc1 | 78%
 |  | Cc1noc(-c2sc(Nc3cccnc3Oc3ccccc3C(C)(C)C)nc2C(F)(F)F)n1 | 56%
 |  | CC(C)(C)c1ccccc1Oc1ncccc1Nc1nc(C(C)(C)CC(=O)O)c(-c2ccccc2)s1 | 89%
 |  | Cc1ccccc1-c1sc(Nc2cccnc2Oc2ccccc2C(C)(C)C)nc1C(F)(F)F | 54%
 |  | CC(C)(C)c1ccccc1Oc1ncccc1Nc1nc(C(F)(F)F)c(C#N)s1 | 101%
 | 2.1 h | CN(C)CC(C)(C)COc1cccc(-c2sc(Nc3cccnc3Oc3ccccc3C(C)(C)C)nc2C(F)(F)F)c1 | 17%
 |  | Cc1sc(Nc2cccnc2Oc2ccccc2C(C)(C)C)nc1C(F)(F)F | 96%
 |  | COc1ccc(-c2sc(Nc3cccnc3Oc3ccccc3C(C)(C)C)nc2C(F)(F)F)cc1 | 30%
 |  | CN(C)C(=O)c1nc(Nc2cccnc2Oc2ccccc2C(C)(C)C)sc1-c1ccccc1 | 100%
 |  | CC(C)(C)c1ccccc1Oc1ncccc1Nc1nc(C(F)(F)F)c(-c2ccc(OC(F)(F)F)cc2)s1 | 85%
